In PMC7985297 (Communications Biology, 2021):
Values joined by “and” are separate entries in the source; they are usually repeats but may differ in a detail not shown here. Identical values can stand only once.

Experiments:
[1] = target: T1, recombinant human Pin1 protein (Homo sapiens, UniProt Q13526); assay: Pin1 inhibition assay (fluorometric isomerase activity); type: biochemical; conditions: compounds 0–50 µM, 500 ng Pin1, Supplementary Fig. 2
T1 construct: purchased Abcam ab51230
Description: The effect of inhibitors on Pin1 isomerase activity was evaluated using a fluorometric Pin1 Assay Kit (AnaSpec, Fremont, California), according to the manufacturer’s protocol. […] Fluorescence intensity was measured with excitation wavelength at 490 nm and emission wavelength at 520 nm on an Infinite M1000 plate reader (Tecan, Männedorf, Switzerland) at 37 °C. Measurements were recorded every 5 min for up to 1 h.
Fluorescent polarization-based assay
the isomerase activity of Pin1. Each reaction contains 500 ng of
recombinant human Pin1 protein incubated with an inhibitor and a
fluorogenic substrate at 37°C. The uncatalyzed reaction represents
the intrinsic cis/trans isomerization of the substrate without Pin1
separate experiments with the correlation performed in duplicate
wells. RFU, relative fluorescent units.
(1 picture or pasted object on this page, not shown here)

PC-3 cells = assay: BrdU incorporation assay, PC-3; type: cell-based, human; conditions: ATRA 10 µM; for BrdU incorporation, PC-3 (Fig. 4c): − R1881, ENZ 10 µM, EPI-002 25 µM, JUG 20 µM
Description: Cells were treated with the inhibitors and stimulated with 1 nM of R1881 (+) or vehicle (−) for 24 to 72 h. Each data point represents the average from an independent experiment where the error bars show the mean ± s.e.m.
BrdU incorporation was determined with the colorimetric BrdU ELISA kit (Roche Diagnostics), according to the manufacturer’s protocol. In brief, cells were seeded in 96-well plates (LNCaP, 5000/well; LN95, 8000/well; PC-3 and DU145, 4000/wells) in media with reduced serum (0.5–1%). On the following day, cells were pre-treated with test compounds for 1 h and then incubated with 0.1 nM of R1881. After the indicated incubation times, cells were labeled with 10 μM of BrdU for 2 h and then fixed for the assay.

LN95 cells [2] = assay: Colony formation of LN95 cells; type: cell-based, human; conditions: LN95, ATRA 5 or 10 µM, EPI-002 25 µM, treated 24 hours then re-plated
Description: page 5: Supplementary Figure 5 a b […] (a) Representative images of colonies from LN95 cells after […] EPI-002. After treating with compounds for 24 hours, the media was removed, and 500 -1,000 cells were re-plated in 6-well plates. Colonies were fixed with 4% paraformaldehyde, stained with a 0.1% crystal violet solution, and then imaged. […]

LN95-D3 xenografts = assay: Growth of LN95-D3 CRPC xenografts in castrated male NSG mice; type: in vivo; conditions: for Tumor volume, individual animals (Fig. 7b): ATRA 5mg, in mm³ (unit assumed)
LN95 cells [3] = assay: Senescence-associated β-galactosidase staining, LN95; conditions: 3 days
Description: β-galactosidase activity at suboptimal pH (6.0) was used as a marker to detect cellular senescence[42]. Cells were seeded in four-well chamber slides at a density of 8000-10,000 cells. […] Three days later, the media was removed and cells were fixed with 2% formaldehyde/0.2% glutaraldehyde for 10 min at room temperature, washed with PBS, and then incubated with freshly prepared β-Gal staining solution (Cell Signaling) titrated to pH 6.0. Staining was optimal after incubating with the β-Gal solution at 37 °C for 16–18 h. After staining, the slides were washed twice with PBS, once with absolute methanol, and then mounted with 50% glycerol/PBS. The percentage of β-galactosidase-positive cells were counted with ImageJ using the Cell Counter plugin. A total of nine images containing 100–300 cells were scored to determine the percentages of positive cells.

[4] = target: T2, human AR NTD (AR1–558) fused to Gal4DBD (Gal4-ARN) (Homo sapiens, UniProt P10275); assay: AR NTD transactivation assay (Gal4-ARN) in LNCaP cells; type: cell-based; conditions: EPI-002 25 μM, juglone 20 μM, ATRA 10 μM, 24 h
T2 construct: construct encoding the human AR1–558 of the NTD fused to a Gal4DBD (Gal4-ARN); expressed in transfected cells; host or cells: LNCaP
T2 sequence (P10275 1-558): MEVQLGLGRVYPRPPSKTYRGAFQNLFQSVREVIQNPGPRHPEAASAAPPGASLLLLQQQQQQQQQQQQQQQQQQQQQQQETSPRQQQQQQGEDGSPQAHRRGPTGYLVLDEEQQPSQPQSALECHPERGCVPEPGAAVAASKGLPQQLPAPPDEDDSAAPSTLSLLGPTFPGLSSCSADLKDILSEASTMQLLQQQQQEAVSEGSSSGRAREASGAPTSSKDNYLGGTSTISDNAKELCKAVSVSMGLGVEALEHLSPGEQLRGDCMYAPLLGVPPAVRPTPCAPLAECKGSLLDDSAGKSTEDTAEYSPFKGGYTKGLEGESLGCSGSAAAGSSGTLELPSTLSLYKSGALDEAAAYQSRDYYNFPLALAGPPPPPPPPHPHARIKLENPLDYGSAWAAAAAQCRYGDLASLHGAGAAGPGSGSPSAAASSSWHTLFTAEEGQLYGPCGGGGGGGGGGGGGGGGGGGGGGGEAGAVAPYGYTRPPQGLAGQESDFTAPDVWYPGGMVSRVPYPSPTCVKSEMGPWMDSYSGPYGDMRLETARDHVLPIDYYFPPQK
Text: The remaining putative Pin1-binding sites are within the intrinsically disordered AR NTD that contains transcription activation units, Tau-1 and Tau-5, to mediate androgen-dependent and androgen-independent transactivation, respectively[5],[30]. The loss of AR-LBD shifts the location of transcriptional activity from Tau-1 with androgen, to Tau-5 in the absence of LBD[30].
Error bars show the mean ± s.e.m. *P < 0.05, **P < 0.01, ***P < 0.001; ns not significant.

[5] = target: T3, AR interaction with STAT3 (Homo sapiens, UniProt P10275, T878A); assay: Co-immunoprecipitation of AR with STAT3 from LNCaP cells; type: cell-based; conditions: juglone 30 μM, IL-6 50 ng/mL, 6 h
T3 construct: Endogenous STAT3 complexes were co-immunoprecipitated from LNCaP cells treated with juglone and IL-6; endogenous in cells; host or cells: LNCaP
T3 sequence (P10275 whole entry T878A): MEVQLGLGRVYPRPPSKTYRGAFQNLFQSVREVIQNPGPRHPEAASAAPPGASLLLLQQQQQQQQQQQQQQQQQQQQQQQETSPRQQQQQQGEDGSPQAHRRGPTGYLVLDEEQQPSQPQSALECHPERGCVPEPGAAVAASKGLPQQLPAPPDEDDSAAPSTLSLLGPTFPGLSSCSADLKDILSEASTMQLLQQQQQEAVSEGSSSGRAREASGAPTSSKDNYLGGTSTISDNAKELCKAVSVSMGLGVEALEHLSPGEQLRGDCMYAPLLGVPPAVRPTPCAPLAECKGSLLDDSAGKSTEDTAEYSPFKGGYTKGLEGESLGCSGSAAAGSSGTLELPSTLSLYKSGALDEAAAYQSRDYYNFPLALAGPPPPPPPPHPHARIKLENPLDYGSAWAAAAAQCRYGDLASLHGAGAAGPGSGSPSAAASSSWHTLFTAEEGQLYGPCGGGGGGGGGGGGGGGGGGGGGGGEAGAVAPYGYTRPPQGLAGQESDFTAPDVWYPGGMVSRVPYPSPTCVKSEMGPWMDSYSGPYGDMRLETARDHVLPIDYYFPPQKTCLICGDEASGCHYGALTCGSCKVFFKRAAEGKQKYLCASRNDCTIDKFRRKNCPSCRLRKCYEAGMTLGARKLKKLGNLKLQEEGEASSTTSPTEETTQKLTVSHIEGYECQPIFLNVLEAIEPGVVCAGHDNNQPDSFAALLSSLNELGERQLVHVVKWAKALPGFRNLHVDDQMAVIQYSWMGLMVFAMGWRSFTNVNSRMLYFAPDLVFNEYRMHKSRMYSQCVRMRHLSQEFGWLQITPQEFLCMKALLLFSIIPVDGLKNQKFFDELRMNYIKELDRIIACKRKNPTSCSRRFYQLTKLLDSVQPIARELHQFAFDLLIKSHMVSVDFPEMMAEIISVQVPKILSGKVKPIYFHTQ
Description: Fig. 3 Pin1 interacts with the AR NTD and regulates transactivation. a, b Transactivation assays performed in LNCaP cells expressing a vector encoding the human AR NTD fused to a Gal4 DNA-binding domain (Gal4-ARN). […] Input samples show Pin1 expression from lysates before the pull-down. i Co-immunoprecipitation assay showing AR protein co-immunoprecipitated with STAT3 from LNCaP cells incubated with EPI-002 (EPI, 35 μM), juglone (JUG, 30 μM), or vehicle (VEH, DMSO), and IL-6 (50 ng/mL) for 6 h. j, k Levels of phosphorylated MAPK (isoforms p44 and p42) and phosphorylated STAT3 (Tyr705 and Ser727) from LNCaP cells pre-treated with juglone (20 µM) and then stimulated with IL-6 (50 ng/mL) for 15 min. Error bars show the mean ± s.e.m. *P < 0.05, **P < 0.01, ***P < 0.001; ns not significant.

T1 sequence (Q13526 whole entry): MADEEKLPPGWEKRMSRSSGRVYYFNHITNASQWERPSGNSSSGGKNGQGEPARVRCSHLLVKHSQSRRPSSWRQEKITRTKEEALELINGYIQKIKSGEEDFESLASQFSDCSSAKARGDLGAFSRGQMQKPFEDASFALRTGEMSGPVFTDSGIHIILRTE

| SMILES | effect on isomerase activity of Pin1 [1] | effect on proliferation of PC-3 cells (PC-3 cells) | BrdU incorporation, PC-3 (Fig. 4c) (PC-3 cells) | effect on colony formation (LN95 cells [2]) | tumor growth after 21 days of treatment (LN95-D3 xenografts; castrated mice, ATRA 5 mg 21-day release pellet, EPI-7170 30 mg/kg daily oral, relative to vehicle/placebo-control) | growth of LN95-D3 tumors, pilot study (LN95-D3 xenografts; mice bearing ATRA slow-release pellets compared to placebo) | Tumor volume, individual animals (Fig. 7b) (LN95-D3 xenografts; treatment duration 0 days) | Tumor volume, individual animals (Fig. 7b) (LN95-D3 xenografts; treatment duration 3 days) | Tumor volume, individual animals (Fig. 7b) (LN95-D3 xenografts; treatment duration 6 days) | Tumor volume, individual animals (Fig. 7b) (LN95-D3 xenografts; treatment duration 9 days) | Tumor volume, individual animals (Fig. 7b) (LN95-D3 xenografts; treatment duration 12 days) | Tumor volume, individual animals (Fig. 7b) (LN95-D3 xenografts; treatment duration 15 days) | Tumor volume, individual animals (Fig. 7b) (LN95-D3 xenografts; treatment duration 18 days) | Tumor volume, individual animals (Fig. 7b) (LN95-D3 xenografts; treatment duration 21 days) | effect on percentage of SA β-gal-positive cells (LN95 cells [3]; LN95, ATRA 10 µM) | SA β-gal-positive cells (LN95 cells [3]; LN95, ATRA 10 μM, EPI-002 25 μM) [%] | effect on IL-6-induced transactivation of AR NTD (Gal4-ARN) ([4]; IL-6 50 ng/mL) | effect on forskolin-induced transactivation of AR NTD (Gal4-ARN) ([4]; forskolin 25 μM) | reduction of the amount of AR interacting with STAT3 [5] | BrdU incorporation, PC-3 (Fig. 4c) (PC-3 cells; listed as JUG) |
| --- | --- | --- | --- | --- | --- | --- | --- | --- | --- | --- | --- | --- | --- | --- | --- | --- | --- | --- | --- | --- |
| CC1=C(/C=C/C(C)=C/C=C/C(C)=C/C(=O)O)C(C)(C)CCC1 [ATRA, all-trans retinoic acid] | inhibited the isomerase activity of Pin1 in a dose-dependent manner | did not impact the proliferation of either PC-3 or DU145 cells | 1.204 and 0.885 and 0.987 and 1.277 | inhibited the ability of LN95 cells to form colonies in a dose-dependent manner | significantly reduced | markedly reduced | 24.32 and 14.61 and 31.83 and 56.34 and 20.55 and 20.28 and 50.07 and 32.48 | 55.84 and 24.48 and 48.26 and 128.17 and 47.08 and 28.39 and 67.63 and 51.78 | 83.34 and 43.04 and 71.44 and 190.56 and 74.31 and 35.31 and 102.14 and 93.49 | 133.91 and 53.07 and 85.22 and 295.56 and 122.11 and 47.93 and 142.91 and 132.75 | 206.68 and 57.46 and 89.96 and 435.8 and 154.08 and 63.14 and 159.59 and 153.66 | 291.35 and 84.16 and 118.21 and 658.17 and 325.4 and 102.18 and 255.62 and 266.01 | 379.83 and 117.24 and 202.18 and 871.57 and 503.37 and 170.47 and 377.34 and 331.83 | 564.91 and 139.55 and 232.06 and 1102.95 and 649.08 and 196.67 and 421.71 and 345.48 | significantly increased the percentage of SA β-gal-positive cells for LNCaP and LN95 cells | 37 |  |  |  |  |
| O=C1C=CC(=O)c2c(O)cccc21 [juglone] | inhibited the isomerase activity of Pin1 in a dose-dependent manner |  |  |  |  |  |  |  |  |  |  |  |  |  |  |  | only inhibited IL-6-induced transactivation | only inhibited IL-6-induced transactivation | ~ 50% | 0.17 and 0.16 and 0.171 and 0.227 |
